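Tested at 5 concentrations; 48 h exposure; 96-well plates; endpoints linearly interpolated, else capped at highest concentration. TGI denotes the concentration required for complete inhibition of growth.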
Assays:
Assay in all cases: NCI tumour cell line growth inhibition, 48 h
786-0 renal = test system: 786-0 renal
A549 NSCLC = test system: A549 NSCLC
ACHN renal = test system: ACHN renal
BT-549 breast = test system: BT-549 breast
CAKI-1 renal = test system: CAKI-1 renal
CCRF-CEM leukemia = test system: CCRF-CEM leukemia
COLO 205 colon = test system: COLO 205 colon
DU-145 prostate = test system: DU-145 prostate
EKVX NSCLC = test system: EKVX NSCLC
HCC-2998 colon = test system: HCC-2998 colon
HCT-116 colon = test system: HCT-116 colon
HCT-15 colon = test system: HCT-15 colon
HL-60(TB) leukemia = test system: HL-60(TB) leukemia
HOP-62 NSCLC = test system: HOP-62 NSCLC
HS 578T breast = test system: HS 578T breast
HT29 colon = test system: HT29 colon
IGROV1 ovarian = test system: IGROV1 ovarian
K-562 leukemia = test system: K-562 leukemia
KM12 colon = test system: KM12 colon
LOX IMVI melanoma = test system: LOX IMVI melanoma
M14 melanoma = test system: M14 melanoma
MALME-3M melanoma = test system: MALME-3M melanoma
MCF7 breast = test system: MCF7 breast
MDA-MB-435 = test system: MDA-MB-435
MDA-N = test system: MDA-N
MOLT-4 leukemia = test system: MOLT-4 leukemia
NCI-H226 lung = test system: NCI-H226 lung
NCI-H23 lung = test system: NCI-H23 lung
NCI-H522 lung = test system: NCI-H522 lung
NCI/ADR-RES ovarian = test system: NCI/ADR-RES ovarian
OVCAR-3 ovarian = test system: OVCAR-3 ovarian
OVCAR-4 ovarian = test system: OVCAR-4 ovarian
OVCAR-5 ovarian = test system: OVCAR-5 ovarian
OVCAR-8 ovarian = test system: OVCAR-8 ovarian
PC-3 prostate = test system: PC-3 prostate
RPMI-8226 leukemia = test system: RPMI-8226 leukemia
RXF 393 renal = test system: RXF 393 renal
SF-268 CNS = test system: SF-268 CNS
SF-295 CNS = test system: SF-295 CNS
SF-539 CNS = test system: SF-539 CNS
SK-MEL-2 melanoma = test system: SK-MEL-2 melanoma
SK-MEL-28 melanoma = test system: SK-MEL-28 melanoma
SK-MEL-5 melanoma = test system: SK-MEL-5 melanoma
SK-OV-3 ovarian = test system: SK-OV-3 ovarian
SN12C renal = test system: SN12C renal
SNB-19 CNS = test system: SNB-19 CNS
SNB-75 CNS = test system: SNB-75 CNS
SR leukemia = test system: SR leukemia
SW-620 colon = test system: SW-620 colon
T-47D breast = test system: T-47D breast
TK-10 renal = test system: TK-10 renal
U251 CNS = test system: U251 CNS
UACC-257 melanoma = test system: UACC-257 melanoma
UACC-62 melanoma = test system: UACC-62 melanoma
UO-31 renal = test system: UO-31 renal
A498 renal = test system: A498 renal
HOP-92 NSCLC = test system: HOP-92 NSCLC
NCI-H460 lung = test system: NCI-H460 lung
MDA-MB-231 breast = test system: MDA-MB-231 breast

For `CN/N=C(/C=C/c1ccccc1)C(C)C`, the TGI (786-0 renal) was > 100 µM, the TGI (A549 NSCLC) was > 100 µM and the TGI (ACHN renal) was > 100 µM. For the same molecule, the TGI (BT-549 breast) was > 100 µM, the TGI (CAKI-1 renal) was > 100 µM and the TGI (CCRF-CEM leukemia) was > 100 µM. For the same molecule, the TGI (COLO 205 colon) was > 100 µM, the TGI (DU-145 prostate) was > 100 µM and the TGI (EKVX NSCLC) was > 100 µM. For the same molecule, the TGI (HCC-2998 colon) was > 100 µM, the TGI (HCT-116 colon) was > 100 µM and the TGI (HCT-15 colon) was > 100 µM. The TGI (HL-60(TB) leukemia) was > 100 µM, the TGI (HOP-62 NSCLC) was > 100 µM and the TGI (HS 578T breast) was > 100 µM. For the same molecule, the TGI (HT29 colon) was > 100 µM, the TGI (IGROV1 ovarian) was > 100 µM and the TGI (K-562 leukemia) was > 100 µM. The TGI (KM12 colon) was > 100 µM, the TGI (LOX IMVI melanoma) was > 100 µM and the TGI (M14 melanoma) was > 100 µM. The TGI (MALME-3M melanoma) was > 100 µM, the TGI (MCF7 breast) was > 100 µM and the TGI (MDA-MB-435) was > 100 µM. The TGI (MDA-N) was > 100 µM, the TGI (MOLT-4 leukemia) was > 100 µM and the TGI (NCI-H226 lung) was > 100 µM. For the same molecule, the TGI (NCI-H23 lung) was > 100 µM, the TGI (NCI-H522 lung) was > 100 µM and the TGI (NCI/ADR-RES ovarian) was > 100 µM. For the same molecule, the TGI (OVCAR-3 ovarian) was > 100 µM, the TGI (OVCAR-4 ovarian) was > 100 µM and the TGI (OVCAR-5 ovarian) was > 100 µM. The TGI (OVCAR-8 ovarian) was > 100 µM, the TGI (PC-3 prostate) was > 100 µM and the TGI (RPMI-8226 leukemia) was > 100 µM. For the same molecule, the TGI (RXF 393 renal) was > 100 µM, the TGI (SF-268 CNS) was > 100 µM and the TGI (SF-295 CNS) was > 100 µM. The TGI (SF-539 CNS) was > 100 µM, the TGI (SK-MEL-2 melanoma) was > 100 µM and the TGI (SK-MEL-28 melanoma) was > 100 µM. For the same molecule, the TGI (SK-MEL-5 melanoma) was > 100 µM, the TGI (SK-OV-3 ovarian) was > 100 µM and the TGI (SN12C renal) was > 100 µM. For the same molecule, the TGI (SNB-19 CNS) was > 100 µM, the TGI (SNB-75 CNS) was > 100 µM and the TGI (SR leukemia) was > 100 µM. For the same molecule, the TGI (SW-620 colon) was > 100 µM, the TGI (T-47D breast) was > 100 µM and the TGI (TK-10 renal) was > 100 µM. The TGI (U251 CNS) was > 100 µM, the TGI (UACC-257 melanoma) was > 100 µM and the TGI (UACC-62 melanoma) was > 100 µM. For the same molecule, the TGI (UO-31 renal) was > 100 µM.
For `CC[C@@]1(C[C@H]2C[C@@]3(C(=O)OC)c4[nH]c5ccccc5c4CCN3C2=S)COC2(CCCCC2)O1`, the TGI (786-0 renal) was > 100 µM, the TGI (A498 renal) was > 100 µM and the TGI (A549 NSCLC) was > 100 µM. The TGI (ACHN renal) was > 100 µM, the TGI (BT-549 breast) was 41.6 µM and the TGI (CAKI-1 renal) was > 100 µM. The TGI (CCRF-CEM leukemia) was > 100 µM, the TGI (COLO 205 colon) was > 100 µM and the TGI (DU-145 prostate) was > 100 µM. The TGI (EKVX NSCLC) was > 100 µM, the TGI (HCC-2998 colon) was > 100 µM and the TGI (HCT-116 colon) was > 100 µM. For the same molecule, the TGI (HCT-15 colon) was > 100 µM, the TGI (HL-60(TB) leukemia) was > 100 µM and the TGI (HOP-62 NSCLC) was > 100 µM. The TGI (HOP-92 NSCLC) was > 100 µM, the TGI (HS 578T breast) was > 100 µM and the TGI (HT29 colon) was > 100 µM. For the same molecule, the TGI (IGROV1 ovarian) was > 100 µM, the TGI (K-562 leukemia) was > 100 µM and the TGI (KM12 colon) was 67.8 µM. For the same molecule, the TGI (LOX IMVI melanoma) was > 100 µM, the TGI (M14 melanoma) was > 100 µM and the TGI (MALME-3M melanoma) was > 100 µM. The TGI (MCF7 breast) was > 100 µM, the TGI (MDA-MB-435) was > 100 µM and the TGI (MDA-N) was > 100 µM. For the same molecule, the TGI (MOLT-4 leukemia) was > 100 µM, the TGI (NCI-H23 lung) was > 100 µM and the TGI (NCI-H460 lung) was > 100 µM. For the same molecule, the TGI (NCI-H522 lung) was > 100 µM, the TGI (NCI/ADR-RES ovarian) was > 100 µM and the TGI (OVCAR-3 ovarian) was > 100 µM. For the same molecule, the TGI (OVCAR-4 ovarian) was > 100 µM, the TGI (OVCAR-5 ovarian) was > 100 µM and the TGI (OVCAR-8 ovarian) was > 100 µM. The TGI (PC-3 prostate) was > 100 µM, the TGI (RXF 393 renal) was > 100 µM and the TGI (SF-268 CNS) was > 100 µM. For the same molecule, the TGI (SF-295 CNS) was > 100 µM, the TGI (SF-539 CNS) was > 100 µM and the TGI (SK-MEL-2 melanoma) was > 100 µM. For the same molecule, the TGI (SK-MEL-5 melanoma) was 39 µM, the TGI (SK-OV-3 ovarian) was > 100 µM and the TGI (SN12C renal) was > 100 µM. For the same molecule, the TGI (SNB-19 CNS) was > 100 µM, the TGI (SNB-75 CNS) was > 100 µM and the TGI (SR leukemia) was > 100 µM. For the same molecule, the TGI (SW-620 colon) was 36.2 µM, the TGI (T-47D breast) was > 100 µM and the TGI (TK-10 renal) was 87.7 µM. For the same molecule, the TGI (U251 CNS) was > 100 µM, the TGI (UACC-257 melanoma) was > 100 µM and the TGI (UACC-62 melanoma) was > 100 µM. For the same molecule, the TGI (UO-31 renal) was > 100 µM.
For `C=C1C(=O)C23CC1CCC2C12CO[C@H](O)[C@H]1C(C)(C)[C@H](OC(C)=O)C[C@H]2OC3=O` (stereo not given in full), the TGI (786-0 renal) was 29.9 µM, the TGI (A549 NSCLC) was > 100 µM and the TGI (ACHN renal) was 29.6 µM. The TGI (BT-549 breast) was 21.9 µM, the TGI (CAKI-1 renal) was 28.8 µM and the TGI (CCRF-CEM leukemia) was > 100 µM. For the same molecule, the TGI (COLO 205 colon) was 28.8 µM, the TGI (DU-145 prostate) was 83.3 µM and the TGI (EKVX NSCLC) was 29.1 µM. It also gave a TGI (HCC-2998 colon) of 54.2 µM, a TGI (HCT-116 colon) of 28 µM and a TGI (HCT-15 colon) of 28.8 µM. For the same molecule, the TGI (HL-60(TB) leukemia) was 87.9 µM, the TGI (HOP-92 NSCLC) was 22.2 µM and the TGI (HS 578T breast) was > 100 µM. The TGI (HT29 colon) was 27.1 µM, the TGI (IGROV1 ovarian) was > 100 µM and the TGI (K-562 leukemia) was > 100 µM. For the same molecule, the TGI (KM12 colon) was > 100 µM, the TGI (LOX IMVI melanoma) was 33.7 µM and the TGI (M14 melanoma) was 53.2 µM. For the same molecule, the TGI (MALME-3M melanoma) was 28.1 µM, the TGI (MCF7 breast) was 32.4 µM and the TGI (MDA-MB-231 breast) was 37.2 µM. It also gave a TGI (MDA-MB-435) of 44.8 µM, a TGI (MDA-N) of 30.6 µM and a TGI (MOLT-4 leukemia) of 82.2 µM. The TGI (NCI-H226 lung) was > 100 µM, the TGI (NCI-H23 lung) was > 100 µM and the TGI (NCI-H460 lung) was > 100 µM. For the same molecule, the TGI (NCI-H522 lung) was 3.63 µM, the TGI (NCI/ADR-RES ovarian) was > 100 µM and the TGI (OVCAR-3 ovarian) was 55.2 µM. For the same molecule, the TGI (OVCAR-4 ovarian) was > 100 µM, the TGI (OVCAR-5 ovarian) was 33.3 µM and the TGI (OVCAR-8 ovarian) was > 100 µM. For the same molecule, the TGI (PC-3 prostate) was > 100 µM, the TGI (RPMI-8226 leukemia) was > 100 µM and the TGI (SF-268 CNS) was 34.2 µM. For the same molecule, the TGI (SF-295 CNS) was > 100 µM, the TGI (SF-539 CNS) was 41.7 µM and the TGI (SK-MEL-2 melanoma) was 31.1 µM. The TGI (SK-MEL-28 melanoma) was 33.2 µM, the TGI (SK-MEL-5 melanoma) was 77.1 µM and the TGI (SK-OV-3 ovarian) was > 100 µM. For the same molecule, the TGI (SN12C renal) was 46.2 µM, the TGI (SNB-19 CNS) was > 100 µM and the TGI (SNB-75 CNS) was > 100 µM. The TGI (SW-620 colon) was 30.5 µM, the TGI (T-47D breast) was 40.5 µM and the TGI (TK-10 renal) was 28.5 µM. The TGI (U251 CNS) was > 100 µM, the TGI (UACC-257 melanoma) was > 100 µM and the TGI (UACC-62 melanoma) was 28.9 µM. For the same molecule, the TGI (UO-31 renal) was 67.7 µM.

— PubChem BioAssay (NCI)
